In ChEMBL document CHEMBL5212743, “Selectivity Literature for EUbOPEN Chemogenomics Library wave 3” (2023):
One block for each molecule: values may come before it.

Columns and labels:
[1] = target: Receptor-interacting serine/threonine-protein kinase 1 (Homo sapiens) (UniProt Q13546); test: Selectivity interaction (KinomeScan (DiscoverX)) EUB0000335a RIPK1; conditions: at 1 µM
D(1A) dopamine receptor = D(1A) dopamine receptor (Homo sapiens, UniProt P21728); test: Selectivity interaction (GPCR panel (PDSP screen)) EUB0000335a DRD1
[2] = target: T1, Mitogen-activated protein kinase kinase kinase 13 (Homo sapiens) (UniProt O43283); test: Selectivity interaction (KinomeScan (DiscoverX)) EUB0000335a MAP3K13; conditions: at 1 µM
T1 sequence (whole entry): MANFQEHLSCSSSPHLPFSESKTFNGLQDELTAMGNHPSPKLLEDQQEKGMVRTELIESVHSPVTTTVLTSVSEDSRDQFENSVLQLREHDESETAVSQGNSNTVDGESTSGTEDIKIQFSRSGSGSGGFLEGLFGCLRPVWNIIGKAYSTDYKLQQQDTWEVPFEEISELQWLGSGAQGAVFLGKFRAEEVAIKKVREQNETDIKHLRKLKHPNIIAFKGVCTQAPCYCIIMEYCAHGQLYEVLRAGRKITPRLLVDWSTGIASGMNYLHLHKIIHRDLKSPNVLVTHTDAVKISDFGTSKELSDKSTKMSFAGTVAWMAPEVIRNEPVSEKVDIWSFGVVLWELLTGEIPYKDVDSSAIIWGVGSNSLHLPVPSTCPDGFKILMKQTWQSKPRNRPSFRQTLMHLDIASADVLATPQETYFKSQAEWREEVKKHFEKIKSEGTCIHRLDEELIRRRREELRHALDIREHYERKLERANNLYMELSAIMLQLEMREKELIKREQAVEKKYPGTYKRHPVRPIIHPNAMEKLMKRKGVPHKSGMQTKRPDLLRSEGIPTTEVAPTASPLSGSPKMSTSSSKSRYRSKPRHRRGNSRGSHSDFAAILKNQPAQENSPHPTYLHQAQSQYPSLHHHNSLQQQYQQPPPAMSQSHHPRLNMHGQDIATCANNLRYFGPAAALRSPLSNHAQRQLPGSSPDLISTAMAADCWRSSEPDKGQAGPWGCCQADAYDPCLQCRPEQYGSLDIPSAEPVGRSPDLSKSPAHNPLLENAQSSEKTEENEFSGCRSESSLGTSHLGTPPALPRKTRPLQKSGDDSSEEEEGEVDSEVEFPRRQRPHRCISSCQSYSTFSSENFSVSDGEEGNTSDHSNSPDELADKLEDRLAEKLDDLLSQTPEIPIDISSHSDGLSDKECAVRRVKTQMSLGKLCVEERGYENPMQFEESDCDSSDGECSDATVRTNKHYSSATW

[3] = target: Serine/threonine-protein kinase WNK2 (Homo sapiens) (UniProt Q9Y3S1); test: Selectivity interaction (KinomeScan (DiscoverX)) EUB0000335a WNK2; conditions: at 1 µM
[4] = target: Cyclin-dependent kinase 3 (Homo sapiens) (UniProt Q00526); test: Selectivity interaction (KinomeScan (DiscoverX)) EUB0000335a CDK3; conditions: at 1 µM
[5] = target: Mitotic checkpoint serine/threonine-protein kinase BUB1 (Homo sapiens) (UniProt O43683); test: Selectivity interaction (KinomeScan (DiscoverX)) EUB0000335a BUB1; conditions: at 1 µM
[6] = target: Thromboxane-A synthase (Homo sapiens) (UniProt P24557); test: (§1) Selectivity interaction (Eurofins-Panlabs screen) EUB0000542a CYP5A1; conditions: at 10 µM
[7] = target: Tyrosine-protein kinase receptor TYRO3 (Homo sapiens) (UniProt Q06418); test: Selectivity interaction (KinomeScan (DiscoverX)) EUB0000542a TYRO3; conditions: at 1 µM
[8] = target: Serine/threonine-protein kinase Chk2 (Homo sapiens, UniProt O96017); test: Selectivity interaction (KinomeScan (DiscoverX)) EUB0000542a CHEK2; conditions: at 1 µM
[9] = target: Polyunsaturated fatty acid 5-lipoxygenase (Homo sapiens) (UniProt P09917); test: (§2) Selectivity interaction (Eurofins-Panlabs screen) EUB0000542a ALOX5; conditions: at 10 µM
Thromboxane-A synthase = Thromboxane-A synthase (Homo sapiens, UniProt P24557); test: as §1
[10] = target: Tyrosine-protein kinase JAK1 (Homo sapiens, UniProt P23458); test: Selectivity interaction (KinomeScan (DiscoverX)) EUB0000542a JAK1@kinase 2; conditions: at 1 µM
[11] = target: Polyunsaturated fatty acid 5-lipoxygenase (Homo sapiens, UniProt P09917); test: as §2
[12] = target: Matrix metalloproteinase-9 (Homo sapiens, UniProt P14780); test: Selectivity interaction (Lead profiling screen (Eurofins, enzymes, transporters, GPCRs, ion chanels)) EUB0000728a MMP9
D(2) dopamine receptor = D(2) dopamine receptor (Homo sapiens, UniProt P14416); test: Selectivity interaction (GPCR panel (PDSP screen)) EUB0000728a DRD2; conditions: at 10 µM
[13] = target: Calcium/calmodulin-dependent protein kinase type 1B (Homo sapiens, UniProt Q6P2M8); test: Selectivity interaction (KinomeScan (DiscoverX)) EUB0000728a PNCK; conditions: at 1 µM
[14] = target: Epidermal growth factor receptor (Homo sapiens, UniProt P00533); test: Selectivity interaction (KinomeScan (DiscoverX)) EUB0000728a EGFR; conditions: at 1 µM
[15] = target: Matrix metalloproteinase-14 (Homo sapiens, UniProt P50281); test: Selectivity interaction (Lead profiling screen (Eurofins, enzymes, transporters, GPCRs, ion chanels)) EUB0000728a MMP14
[16] = target: Non-receptor tyrosine-protein kinase TYK2 (Homo sapiens, UniProt P29597); test: Selectivity interaction (KinomeScan (DiscoverX)) EUB0000728a TYK2; conditions: at 1 µM
Collagenase 3 = Collagenase 3 (Homo sapiens, UniProt P45452); test: Selectivity interaction (Lead profiling screen (Eurofins, enzymes, transporters, GPCRs, ion chanels)) EUB0000728a MMP13
Stromelysin-1 = Stromelysin-1 (Homo sapiens, UniProt P08254); test: Selectivity interaction (Lead profiling screen (Eurofins, enzymes, transporters, GPCRs, ion chanels)) EUB0000728a MMP3
Stromelysin-2 = Stromelysin-2 (Homo sapiens, UniProt P09238); test: Selectivity interaction (Lead profiling screen (Eurofins, enzymes, transporters, GPCRs, ion chanels)) EUB0000728a MMP10
Neutrophil collagenase = Neutrophil collagenase (Homo sapiens, UniProt P22894); test: Selectivity interaction (Lead profiling screen (Eurofins, enzymes, transporters, GPCRs, ion chanels)) EUB0000728a MMP8
[17] = target: 72 kDa type IV collagenase (Homo sapiens, UniProt P08253); test: Selectivity interaction (Lead profiling screen (Eurofins, enzymes, transporters, GPCRs, ion chanels)) EUB0000728a MMP2
Matrilysin = target: T2, Matrilysin (Homo sapiens, UniProt P09237); test: Selectivity interaction (Lead profiling screen (Eurofins, enzymes, transporters, GPCRs, ion chanels)) EUB0000728a MMP7
T2 sequence (P09237 whole entry): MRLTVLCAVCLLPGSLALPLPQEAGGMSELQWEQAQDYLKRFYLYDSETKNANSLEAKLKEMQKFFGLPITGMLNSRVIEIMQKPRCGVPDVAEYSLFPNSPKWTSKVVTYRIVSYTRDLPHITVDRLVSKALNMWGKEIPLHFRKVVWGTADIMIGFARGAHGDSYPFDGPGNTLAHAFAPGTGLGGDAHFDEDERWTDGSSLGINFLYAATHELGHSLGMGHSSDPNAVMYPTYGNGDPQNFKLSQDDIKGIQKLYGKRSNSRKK

[18] = target: Matrix metalloproteinase-16 (Homo sapiens, UniProt P51512); test: Selectivity interaction (Lead profiling screen (Eurofins, enzymes, transporters, GPCRs, ion chanels)) EUB0000728a MMP16

Sequence of Polyunsaturated fatty acid 5-lipoxygenase (Homo sapiens) (P09917 whole entry): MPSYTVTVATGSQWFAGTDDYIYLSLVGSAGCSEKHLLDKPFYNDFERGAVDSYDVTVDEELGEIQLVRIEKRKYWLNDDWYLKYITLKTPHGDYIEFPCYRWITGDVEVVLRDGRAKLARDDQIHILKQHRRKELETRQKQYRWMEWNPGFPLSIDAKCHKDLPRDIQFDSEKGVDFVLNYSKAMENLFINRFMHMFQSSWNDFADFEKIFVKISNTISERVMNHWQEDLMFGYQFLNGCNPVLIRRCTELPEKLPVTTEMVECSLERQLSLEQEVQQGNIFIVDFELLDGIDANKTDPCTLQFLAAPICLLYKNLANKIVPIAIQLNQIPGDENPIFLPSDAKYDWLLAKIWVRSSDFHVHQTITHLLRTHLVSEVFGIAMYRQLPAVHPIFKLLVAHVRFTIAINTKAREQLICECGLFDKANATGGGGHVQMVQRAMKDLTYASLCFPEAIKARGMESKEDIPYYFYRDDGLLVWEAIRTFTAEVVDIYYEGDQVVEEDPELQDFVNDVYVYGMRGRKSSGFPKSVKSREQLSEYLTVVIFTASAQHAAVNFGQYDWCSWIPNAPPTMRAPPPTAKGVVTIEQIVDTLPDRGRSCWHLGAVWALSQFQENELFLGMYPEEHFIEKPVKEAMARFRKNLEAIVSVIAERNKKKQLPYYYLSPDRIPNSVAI
Sequence of Polyunsaturated fatty acid 5-lipoxygenase (P09917 whole entry): as above
Sequence of Matrix metalloproteinase-9 (P14780 whole entry): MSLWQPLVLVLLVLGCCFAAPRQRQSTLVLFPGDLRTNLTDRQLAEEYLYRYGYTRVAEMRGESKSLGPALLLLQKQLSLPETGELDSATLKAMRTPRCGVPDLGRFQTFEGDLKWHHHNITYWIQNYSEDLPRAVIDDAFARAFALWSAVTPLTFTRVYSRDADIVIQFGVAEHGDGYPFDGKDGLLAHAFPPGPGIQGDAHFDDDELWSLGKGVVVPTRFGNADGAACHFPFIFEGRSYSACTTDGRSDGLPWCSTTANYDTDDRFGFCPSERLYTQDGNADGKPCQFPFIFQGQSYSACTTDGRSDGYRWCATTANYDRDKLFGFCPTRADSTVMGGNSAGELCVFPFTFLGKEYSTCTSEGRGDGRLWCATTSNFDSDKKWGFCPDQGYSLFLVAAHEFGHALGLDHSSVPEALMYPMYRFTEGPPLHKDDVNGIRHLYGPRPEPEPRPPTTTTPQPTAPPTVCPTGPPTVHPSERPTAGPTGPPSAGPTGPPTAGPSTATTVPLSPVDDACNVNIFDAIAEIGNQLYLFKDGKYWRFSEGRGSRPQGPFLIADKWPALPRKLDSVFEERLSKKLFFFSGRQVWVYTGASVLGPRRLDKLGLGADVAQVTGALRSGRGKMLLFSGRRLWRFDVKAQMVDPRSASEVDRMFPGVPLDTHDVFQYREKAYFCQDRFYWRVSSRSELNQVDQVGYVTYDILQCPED
Sequence of Cyclin-dependent kinase 3 (Homo sapiens) (Q00526 whole entry, looked up): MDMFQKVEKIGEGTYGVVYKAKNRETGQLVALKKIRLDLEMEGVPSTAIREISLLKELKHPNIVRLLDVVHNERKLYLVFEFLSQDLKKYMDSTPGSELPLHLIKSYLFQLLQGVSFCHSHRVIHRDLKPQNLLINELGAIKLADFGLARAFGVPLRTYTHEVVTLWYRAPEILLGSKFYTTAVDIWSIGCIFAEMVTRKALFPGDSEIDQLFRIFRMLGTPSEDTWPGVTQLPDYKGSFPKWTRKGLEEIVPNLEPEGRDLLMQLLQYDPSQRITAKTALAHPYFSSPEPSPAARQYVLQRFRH
Sequence of Neutrophil collagenase (P22894 whole entry): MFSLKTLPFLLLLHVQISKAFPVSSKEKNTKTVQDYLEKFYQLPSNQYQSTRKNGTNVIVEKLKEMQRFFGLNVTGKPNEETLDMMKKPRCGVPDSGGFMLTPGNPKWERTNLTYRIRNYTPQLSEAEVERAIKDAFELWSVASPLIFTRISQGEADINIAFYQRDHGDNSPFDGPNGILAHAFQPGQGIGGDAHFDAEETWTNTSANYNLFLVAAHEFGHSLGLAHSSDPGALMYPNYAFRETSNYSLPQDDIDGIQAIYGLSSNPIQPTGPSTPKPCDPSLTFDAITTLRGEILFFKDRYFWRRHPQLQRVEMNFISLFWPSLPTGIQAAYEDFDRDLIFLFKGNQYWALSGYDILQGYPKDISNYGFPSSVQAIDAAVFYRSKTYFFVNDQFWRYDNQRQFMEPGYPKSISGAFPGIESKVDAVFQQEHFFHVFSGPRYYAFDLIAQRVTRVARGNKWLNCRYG
Sequence of D(1A) dopamine receptor (P21728 whole entry): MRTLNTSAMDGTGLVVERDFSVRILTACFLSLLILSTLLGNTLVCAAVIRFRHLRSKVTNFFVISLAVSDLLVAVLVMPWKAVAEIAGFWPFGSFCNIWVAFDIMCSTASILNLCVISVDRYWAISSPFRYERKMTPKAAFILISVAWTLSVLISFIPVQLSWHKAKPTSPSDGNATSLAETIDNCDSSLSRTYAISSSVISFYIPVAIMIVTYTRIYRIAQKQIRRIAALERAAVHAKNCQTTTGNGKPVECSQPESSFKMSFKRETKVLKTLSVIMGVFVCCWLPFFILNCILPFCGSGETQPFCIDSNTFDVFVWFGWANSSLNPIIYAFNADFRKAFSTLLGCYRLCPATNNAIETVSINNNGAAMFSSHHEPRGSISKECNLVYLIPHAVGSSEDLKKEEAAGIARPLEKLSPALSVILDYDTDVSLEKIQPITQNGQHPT
Sequence of Mitotic checkpoint serine/threonine-protein kinase BUB1 (Homo sapiens) (O43683 whole entry, looked up): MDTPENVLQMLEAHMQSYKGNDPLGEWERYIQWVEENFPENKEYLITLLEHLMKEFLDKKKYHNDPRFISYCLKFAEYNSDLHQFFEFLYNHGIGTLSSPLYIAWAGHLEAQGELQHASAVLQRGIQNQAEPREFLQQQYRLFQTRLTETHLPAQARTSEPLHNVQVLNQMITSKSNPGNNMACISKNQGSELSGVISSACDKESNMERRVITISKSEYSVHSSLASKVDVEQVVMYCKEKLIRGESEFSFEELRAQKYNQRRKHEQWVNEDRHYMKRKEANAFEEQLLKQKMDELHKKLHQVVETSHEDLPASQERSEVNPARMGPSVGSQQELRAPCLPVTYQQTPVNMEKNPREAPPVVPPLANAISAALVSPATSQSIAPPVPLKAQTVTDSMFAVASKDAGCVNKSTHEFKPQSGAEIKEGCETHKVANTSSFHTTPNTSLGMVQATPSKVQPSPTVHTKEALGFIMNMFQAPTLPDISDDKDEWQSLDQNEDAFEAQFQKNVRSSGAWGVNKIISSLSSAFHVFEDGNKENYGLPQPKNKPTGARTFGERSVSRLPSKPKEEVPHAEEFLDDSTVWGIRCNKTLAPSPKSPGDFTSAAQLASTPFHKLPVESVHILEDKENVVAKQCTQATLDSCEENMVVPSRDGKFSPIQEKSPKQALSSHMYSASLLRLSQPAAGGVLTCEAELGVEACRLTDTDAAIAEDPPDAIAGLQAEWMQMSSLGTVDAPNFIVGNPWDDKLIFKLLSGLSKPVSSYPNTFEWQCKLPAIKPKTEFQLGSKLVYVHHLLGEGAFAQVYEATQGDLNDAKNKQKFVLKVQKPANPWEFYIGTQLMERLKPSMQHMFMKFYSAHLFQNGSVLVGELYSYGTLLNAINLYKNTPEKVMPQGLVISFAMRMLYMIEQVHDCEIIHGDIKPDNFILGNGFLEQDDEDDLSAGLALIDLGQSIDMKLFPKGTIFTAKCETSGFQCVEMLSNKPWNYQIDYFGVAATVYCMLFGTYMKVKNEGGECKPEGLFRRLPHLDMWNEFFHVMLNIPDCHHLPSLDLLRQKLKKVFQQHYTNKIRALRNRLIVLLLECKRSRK
Sequence of Tyrosine-protein kinase receptor TYRO3 (Homo sapiens) (Q06418 whole entry): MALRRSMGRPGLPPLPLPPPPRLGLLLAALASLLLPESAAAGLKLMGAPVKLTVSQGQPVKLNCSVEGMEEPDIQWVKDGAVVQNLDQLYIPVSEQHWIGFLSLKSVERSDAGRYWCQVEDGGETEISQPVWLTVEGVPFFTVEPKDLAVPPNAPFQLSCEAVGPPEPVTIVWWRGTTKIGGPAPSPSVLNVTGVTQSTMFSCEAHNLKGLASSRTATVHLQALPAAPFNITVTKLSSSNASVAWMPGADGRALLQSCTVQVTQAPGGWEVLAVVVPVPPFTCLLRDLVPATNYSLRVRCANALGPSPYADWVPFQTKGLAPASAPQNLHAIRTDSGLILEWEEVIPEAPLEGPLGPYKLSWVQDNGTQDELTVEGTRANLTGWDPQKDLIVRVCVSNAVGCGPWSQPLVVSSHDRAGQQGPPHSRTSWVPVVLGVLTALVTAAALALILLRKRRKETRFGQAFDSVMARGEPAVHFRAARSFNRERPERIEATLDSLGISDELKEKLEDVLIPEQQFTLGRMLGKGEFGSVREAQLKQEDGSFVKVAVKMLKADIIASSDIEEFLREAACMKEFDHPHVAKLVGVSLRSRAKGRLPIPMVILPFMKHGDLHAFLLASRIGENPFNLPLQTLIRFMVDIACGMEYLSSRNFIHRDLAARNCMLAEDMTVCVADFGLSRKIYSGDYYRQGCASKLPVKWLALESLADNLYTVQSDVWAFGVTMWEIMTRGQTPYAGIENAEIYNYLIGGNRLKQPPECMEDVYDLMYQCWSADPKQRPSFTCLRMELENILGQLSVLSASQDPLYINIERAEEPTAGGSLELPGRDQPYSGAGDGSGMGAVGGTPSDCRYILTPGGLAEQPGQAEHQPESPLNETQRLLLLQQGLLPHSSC
Sequence of Calcium/calmodulin-dependent protein kinase type 1B (Q6P2M8 whole entry): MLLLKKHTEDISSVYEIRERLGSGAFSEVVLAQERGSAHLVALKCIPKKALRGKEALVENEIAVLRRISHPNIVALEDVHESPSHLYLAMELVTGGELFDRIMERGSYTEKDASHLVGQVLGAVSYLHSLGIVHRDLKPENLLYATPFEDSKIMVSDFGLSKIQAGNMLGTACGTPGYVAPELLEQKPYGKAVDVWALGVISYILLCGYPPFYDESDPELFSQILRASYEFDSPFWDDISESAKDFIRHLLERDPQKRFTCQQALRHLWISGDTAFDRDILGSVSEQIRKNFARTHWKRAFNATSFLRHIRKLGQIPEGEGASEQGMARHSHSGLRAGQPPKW

% of control [1]: 30% | Ki (D(1A) dopamine receptor): > 10000 nM | % of control [2]: 0% | % of control [3]: 0% | % of control [4]: 41% | % of control [5]: 1.9%
Structure (SMILES): O=C(NCc1ncc(C(F)(F)F)cc1Cl)c1ccc2c(c1)C1(CCS(=O)(=O)CC1)[C@@H](C1CC1)N2S(=O)(=O)c1ccc(F)cc1 [BAY-786]

% of inhibition [6]: 96% | % of control [7]: 0% | % of control [8]: 0% | % of inhibition [9]: 66% | IC50 (Thromboxane-A synthase): 132 nM | % of control [10]: 37% | IC50 [11]: 5920 nM
Structure (SMILES): CCOCCn1cc(C(=O)Nc2ccc(-n3nc(-c4cccnc4)cc3C(F)(F)F)cn2)ccc1=O [BI 1935]

IC50 [12]: 460 nM | % of inhibition (D(2) dopamine receptor): 30% | % of control [13]: 46% | % of control [14]: 40% | IC50 [15]: 250 nM | % of control [16]: 41% | IC50 (Collagenase 3): 67 nM | IC50 (Stromelysin-1): 360 nM | IC50 (Stromelysin-2): 13 nM | IC50 (Neutrophil collagenase): 15 nM | IC50 [17]: 44 nM | IC50 (Matrilysin): 600 nM | IC50 [18]: 940 nM
Structure (SMILES): O=C(O)[C@H]1[C@H](Cn2nnc3ccccc3c2=O)CC[C@@H]1C(=O)c1ccc(OCCC2CCOCC2)cc1 [BAY-7598]
